Data set [1] can be described thus: Efflux ratio of apparent permeability in human Caco2 cells at 10 uM after 2 hrs by LC-MS/MS analysis. It counts as ADME, cell-based. Conditions: Caco-2. In general terms: Caco-2 monolayers are a common model of the intestinal barrier.
Data set [2] can be described thus: Terminal half life in rat at 5 mg/kg, iv measured up to 24 hrs by LC-MS/MS analysis. It counts as ADME, organism-based. The settings on record: in vivo, read-out: beta t1/2 (converted).
A short description of data set [3]: Dark toxicity in BALB/c mouse 3T3 cells assessed as reduction in cell viability incubated for 1 hr prior to 50 mins incubation under dark condition followed by replacement of medium and measured after 24 hrs by neutral red uptake assay. It counts as cell-based, NIH3T3. The settings on record: BALB/c 3T3 cells.
A further data set relates to Klebsiella oxytoca. As to the kind of experiment: Antibacterial activity against Klebsiella oxytoca clinical isolates by CLSI-based broth microdilution assay. In kind it is functional.
Data set [4] is described as follows: Clearance in rat at 5 mg/kg, iv or 10 mg/kg, po measured up to 24 hrs by LC-MS/MS analysis. It counts as ADME, organism-based. The settings on record: in vivo.
Another data set has as its target DNA gyrase (Escherichia coli, UniProt P0AES4+P0AES6). The data set is described as follows: Inhibition of recombinant full-length C-terminal His6-tagged Escherichia coli DNA gyrase AB supercoiling activity using relaxed DNA as substrate preincubated for 30 mins followed by substrate addition and measured after 2 hrs in presence of ATP by size exclusion HPLC analysis. It counts as protein-complex assay. For orientation: In gel filtration, larger molecules generally elute earlier.

Data set [5] can be described thus: n-Octanol-PBS buffer partition coefficient, log D of the compound at pH 7.4 after overnight incubation by LC/UV/qTOF analysis. In kind it is physicochemical.
A short description of data set [6]: Volume of distribution at steady state in mouse at 5 mg/kg, iv or po measured up to 24 hrs by LC-MS/MS analysis. In kind it is ADME, organism-based. Conditions: in vivo, read-out: Vdss.
The nature of data set [7]: Photoirradiation factor, ratio of IC50 for BALB/c mouse 3T3 cells under dark condition to IC50 for BALB/c mouse 3T3 cells under 5 J/cm2 sunlight irradiation by neutral red uptake assay. The settings on record: BALB/c 3T3 cells, read-out: Ratio IC50. It counts as ADME, cell-based, NIH3T3.
For a further data set, the system named is Klebsiella pneumoniae. The data set is described as follows: Antibacterial activity against Klebsiella pneumoniae clinical isolates by CLSI-based broth microdilution assay. In kind it is functional.
Data set [8] in a line: Terminal half life in mouse at 5 mg/kg, iv measured up to 24 hrs by LC-MS/MS analysis. It counts as ADME, organism-based. Conditions: in vivo, read-out: beta t1/2 (converted).
Data set [9] can be described thus: Clearance in mouse at 5 mg/kg, iv or po measured up to 24 hrs by LC-MS/MS analysis. In kind it is ADME, organism-based. Conditions: in vivo.

Converted amounts (≈) assume the structure as drawn.

Regarding `Cc1c(N2CC3CC3(N)C2)c(F)cc2c(CN)c(F)c(=O)n(C3CC3)c12` (stereo unspecified), in data set [1], the efflux ratio – broadly, the permeability from basolateral to apical divided by that in the opposite direction, in the common usage – at 2 h, 10 µM stood at 1.8. Further, the half-life in [2] was 8.2 h; in [8] it was 1.7 h. Moreover, the IC50 (commonly the concentration needed to halve the response being measured) at 110 min in data set [3] was 1000 µM. Besides, the MIC (in general, the lowest concentration that inhibits growth of the organism) is 0.06 to 32 µg/mL (≈ 0.166 to 88.8 µM) with Klebsiella oxytoca and 0.25 to 32 µg/mL (≈ 0.694 to 88.8 µM) against Klebsiella pneumoniae. In addition, the values for the MIC50 with Klebsiella oxytoca and in the data set with Klebsiella pneumoniae were 1 µg/mL (≈ 2.77 µM) and 4 µg/mL (≈ 11.1 µM), respectively. Besides, the results for the MIC90 in the data set on Klebsiella oxytoca and with Klebsiella pneumoniae were 8 µg/mL (≈ 22.2 µM) and 16 µg/mL (≈ 44.4 µM), respectively. The clearance in [4] came to 71 mL/min/kg; in data set [9] it was 50 mL/min/kg. The IC50 on DNA gyrase was found to be 1.25 µM. In addition, the logD (as a rule, lipophilicity at a set pH, counting ionised and neutral species) in data set [5] turned out to be 1.1. Besides, the Vd in [6] came out at 5.1 L/kg. The selectivity ratio in data set [7] was found to be 621.

Values taken from ChEMBL document CHEMBL4616724, “Topoisomerase Inhibitors Addressing Fluoroquinolone Resistance in Gram-Negative Bacteria” (J Med Chem, 2020).
